Here are results for 18 molecules from US7585859B2, “PDE4B inhibitors and uses therefor” (Plexxikon, Inc., priority 2004, dated 2009).

Common to all, as to assay type: biochemical
Test [1] deals with T1, PDE4B: The catalytic domain of human PDE4B from S152-S528 (Homo sapiens, UniProt Q07343).
T1 construct: His6 (N); thrombin cleavage site (N); made in house; host or cells: E. coli
Description: PDE4 IC50 determination by Scintillation Proximity Assay, PDE4B. The following applies: Table 1B, Formula I compounds; read-out: IC50 PDE4B. An outline of the steps: (§1)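 Scintillation counts reflected [^3H]AMP captured on yttrium silicate SPA beads after enzyme hydrolysed [^3H]cAMP for 30 min at 30°. PDE4B was used at 80 ng/ml and PDE4D at 4 ng/ml. IC50 values came from non-linear regression.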
On the technique in general: SPA uses beads or plates that emit light when radiolabelled molecules are held near them.

A further test concerns the target T2, PDE4D (Homo sapiens, UniProt Q08499).
T2 construct: PDE4D: The catalytic domain of human PDE4B from S3 16-V692; His6 (N); thrombin cleavage site (N); made in house; host or cells: E. coli
Description: PDE4 IC50 determination by Scintillation Proximity Assay, PDE4D. The following applies: Table 1B, Formula I compounds; read-out: IC50 PDE4D. An outline of the steps:
as §1

For test [2], the target named is T3, full-length human PDE4B2 isozyme (Homo sapiens, UniProt Q07343).
T3 construct: The full-length human PDE4B2 isozyme; His6 (N); TEV cleavage site (N); made in house; host or cells: baculovirus infected insect cells (unpurified lysate)
T3 sequence (Q07343 1-564 isoform Q07343-2): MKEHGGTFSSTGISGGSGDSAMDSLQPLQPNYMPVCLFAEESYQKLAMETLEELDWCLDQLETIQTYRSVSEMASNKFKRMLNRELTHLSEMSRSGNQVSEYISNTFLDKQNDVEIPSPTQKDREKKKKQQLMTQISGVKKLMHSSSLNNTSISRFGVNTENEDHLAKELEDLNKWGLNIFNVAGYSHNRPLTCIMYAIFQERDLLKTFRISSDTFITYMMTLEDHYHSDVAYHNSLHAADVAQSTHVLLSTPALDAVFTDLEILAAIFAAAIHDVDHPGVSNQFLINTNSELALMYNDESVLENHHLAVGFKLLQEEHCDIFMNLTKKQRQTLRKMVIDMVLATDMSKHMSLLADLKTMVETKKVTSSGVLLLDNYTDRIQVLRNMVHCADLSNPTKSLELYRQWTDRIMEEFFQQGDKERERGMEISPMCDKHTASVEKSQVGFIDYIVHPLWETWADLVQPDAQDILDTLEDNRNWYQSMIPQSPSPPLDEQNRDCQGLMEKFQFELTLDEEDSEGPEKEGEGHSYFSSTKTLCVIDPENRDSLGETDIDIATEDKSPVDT
Description: PDE4 IC50 determination by Scintillation Proximity Assay, PDE4B2. The following applies: Table 1B, Formula I compounds; read-out: IC50 PDE4B2. The protocol:
(§2) IC50s were determined by Scintillation Proximity Assay (SPA). The principle of the assay is based on the fact that cAMP, the PDE4 substrate, binds weakly to Yittrium Silicate SPA beads, whereas AMP, the product of PDE4 hydrolysis binds strongly. Thus, the extent of PDE4 hydrolysis of a sample of [^3H]cAMP can be measured because only the
(§3) [^3H]AMP produced by PDE4 hydrolysis will bind to the SPA beads and produce a scintillation signal.
(§4) PDE4 enzymes used for IC50 assays were:
PDE4B2: The full-length human PDE4B2 isozyme with an N-terminal His6 tag (SEQ ID NO: 18) and TEV cleavage site expressed in baculovirus infected insect cells. The enzyme was not purified from the cell lysates, so enzyme concentrations were not determined. Enzyme was stored in 50% glycerol at −20°.
(§5) Compounds tested (see Tables 3B, 4B and 5A for compounds and results) were 3-fold serially diluted 11 times in DMSO from a starting concentration of 4 mM or 40 μM, depending on compound potency. 1 μl of each dilution was transferred into duplicate wells of a white polystyrene 384-well assay plate (Coming #3705). In addition to the compound dilutions, each assay plate contained control wells with 1 μl of DMSO (to define 0% enzyme inhibition) or 1 μl of 200 μM roflumilast (to define 100% enzyme inhibition). Using a Beckman FX robot, 10 μl of [^3H] cAMP (Amersham TRK559) at 2 mCi/ml in assay buffer (50 mM Tris, pH 7.5; 8.3 mM MgCl; 1.7 mM EGTA; 0.01% BSA) was transferred to each assay well. Next, 10 μl of PDE4 enzyme in assay buffer was added and the plates were shaken for 30 s. at 1000 rpm to start the cAMP hydrolysis reaction. The concentrations of enzyme used were: PDE4B, 80 ng/ml; PDE4D, 4 ng/ml; PDE4B2, 2.5 μl of 50% glycerol stock/ml; PDE4D5 0.083 μl of 50% glycerol stock/ml. Assay plates were covered and incubated for 30 min. at 30°. Reactions were stopped by robotic addition of 10 μl of 5 mg/ml SPA beads (Amersham RPNQ0013) in 18 mM ZnSO4. The assay plates were covered with clear plastic film, centrifuged for 1 min. at 1000 RPM to settle the SPA beads, and counted using a Wallac TriLux scintillation counter. IC50's were calculated from the raw assay data by non-linear regression curve fitting using the Assay Explorer software package from MDL.

Test [3] concerns the target T4, full-length human PDE4D5 isozyme (Homo sapiens, UniProt Q08499).
T4 construct: The full-length human PDE4D5 isozyme; His6 (N); TEV cleavage site (N); made in house; host or cells: baculovirus infected insect cells (unpurified lysate)
Description: PDE4 IC50 determination by Scintillation Proximity Assay, PDE4D5. The following applies: Table 1B, Formula I compounds; read-out: IC50 PDE4D5. Here is the method: as §2, §3, §4
PDE4D5: The full-length human PDE4D5 isozyme with an N-terminal His6 tag (SEQ ID NO: 18) and TEV cleavage site expressed in baculovirus infected insect cells. The enzyme was not purified from the cell lysates, so enzyme concentrations were not determined. Enzyme was stored in 50% glycerol at −20°.
as §5

T2 sequence (Q08499 380-756): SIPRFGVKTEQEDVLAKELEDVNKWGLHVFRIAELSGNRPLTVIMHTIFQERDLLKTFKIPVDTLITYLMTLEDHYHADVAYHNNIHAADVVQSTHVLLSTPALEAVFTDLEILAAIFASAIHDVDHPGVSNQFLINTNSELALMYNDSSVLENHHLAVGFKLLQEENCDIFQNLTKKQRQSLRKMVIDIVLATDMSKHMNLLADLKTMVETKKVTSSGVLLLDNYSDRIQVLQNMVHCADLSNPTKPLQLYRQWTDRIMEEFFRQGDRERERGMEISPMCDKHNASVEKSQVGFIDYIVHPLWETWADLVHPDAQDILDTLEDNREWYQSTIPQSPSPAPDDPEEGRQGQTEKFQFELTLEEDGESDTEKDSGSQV
T4 sequence (Q08499 1-745 isoform Q08499-6): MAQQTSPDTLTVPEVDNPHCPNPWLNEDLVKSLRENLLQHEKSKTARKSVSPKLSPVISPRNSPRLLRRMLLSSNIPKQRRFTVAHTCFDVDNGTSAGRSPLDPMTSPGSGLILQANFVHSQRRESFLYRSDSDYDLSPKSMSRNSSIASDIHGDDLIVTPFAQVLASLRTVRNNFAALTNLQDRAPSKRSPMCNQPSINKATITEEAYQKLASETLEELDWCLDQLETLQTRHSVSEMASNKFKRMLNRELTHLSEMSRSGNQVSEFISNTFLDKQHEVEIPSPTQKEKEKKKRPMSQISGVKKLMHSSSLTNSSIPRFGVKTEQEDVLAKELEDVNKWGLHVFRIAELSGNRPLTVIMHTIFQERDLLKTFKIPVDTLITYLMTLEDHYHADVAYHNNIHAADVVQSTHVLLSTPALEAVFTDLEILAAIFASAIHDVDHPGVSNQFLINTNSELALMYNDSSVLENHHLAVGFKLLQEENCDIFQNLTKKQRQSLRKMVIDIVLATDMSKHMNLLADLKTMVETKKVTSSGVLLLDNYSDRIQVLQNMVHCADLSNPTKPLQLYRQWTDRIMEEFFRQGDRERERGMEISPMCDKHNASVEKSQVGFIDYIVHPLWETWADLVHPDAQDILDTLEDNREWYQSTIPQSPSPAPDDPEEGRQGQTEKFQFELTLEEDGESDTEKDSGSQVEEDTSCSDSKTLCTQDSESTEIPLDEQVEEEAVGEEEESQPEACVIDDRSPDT
T1 sequence (Q07343 with tags, fused parts or gaps): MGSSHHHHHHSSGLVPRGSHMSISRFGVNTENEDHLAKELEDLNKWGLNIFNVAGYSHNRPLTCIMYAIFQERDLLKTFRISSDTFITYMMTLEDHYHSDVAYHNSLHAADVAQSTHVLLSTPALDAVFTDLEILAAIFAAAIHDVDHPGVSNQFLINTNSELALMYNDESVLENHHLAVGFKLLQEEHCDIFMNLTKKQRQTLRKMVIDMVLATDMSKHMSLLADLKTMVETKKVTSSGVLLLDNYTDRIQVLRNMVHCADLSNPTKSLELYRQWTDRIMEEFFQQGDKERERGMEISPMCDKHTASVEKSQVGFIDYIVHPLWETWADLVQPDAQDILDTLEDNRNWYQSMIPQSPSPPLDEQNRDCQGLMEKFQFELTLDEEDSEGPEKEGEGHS

Turning to `COc1ccc(Nc2sc(C(=O)c3cnn(-c4ccccc4)c3C)c(N)c2C#N)cc1` [Compound 1-50, 4-Amino-2-(4-methoxy-phenylamino)-5-(5-methyl-1-phenyl-1H-pyrazole-4-carbonyl)-thiophene-3-carbonitrile], the IC50 (in test [1]; at PDE4D; in test [2]; in test [3]) was under 10 µM each time.

In the case of `Cc1c(C(=O)c2sc(NC3CCCC3)c(C#N)c2N)cnn1-c1ccccc1` [Compound 1-55, 4-Amino-2-cyclopentylamino-5-(5-methyl-1-phenyl-1H-pyrazole-4-carbonyl)-thiophene-3-carbonitrile], the half-inhibitory concentration (IC50) (in test [1]; at PDE4D; in test [2]; in test [3]) was under 10 µM throughout.

For `Cc1c(C(=O)c2sc(NCC3CCCO3)c(C#N)c2N)cnn1-c1ccccc1` (stereo not drawn) [Compound 1-57, 4-Amino-5-(5-methyl-1-phenyl-1H-pyrazole-4-carbonyl)-2-[(tetrahydro-furan-2-ylmethyl)-amino]-thiophene-3-carbonitrile], the IC50 is over 10 µM in test [1], under 10 µM at PDE4D, over 10 µM in test [2] and over 10 µM in test [3].

Turning to `Cc1onc(-c2ccccc2)c1C(=O)c1sc(NC2CCCC2)c(C#N)c1N` [Compound 1-61, 4-Amino-2-cyclopentylamino-5-(5-methyl-3-phenyl-isoxazole-4-carbonyl)-thiophene-3-carbonitrile], the IC50 (in test [1]; on PDE4D; in test [2]; in test [3]) was under 10 µM throughout.

`N#Cc1c(NCCN2CCCCC2)sc(C(=O)c2cc(-c3ccccc3)no2)c1N` [Compound 1-62, 4-Amino-5-(3-phenyl-isoxazole-5-carbonyl)-2-(2-piperidin-1-yl-ethylamino)-thiophene-3-carbonitrile]: the IC50 (in test [1]; on PDE4D; in test [2]; in test [3]) was over 10 µM throughout.

For `N#Cc1c(NC2CCCC2)sc(C(=O)c2ccccn2)c1N` [Compound 1-66, 4-Amino-2-cyclopentylamino-5-(pyridine-2-carbonyl)-thiophene-3-carbontrile], the concentration for half-maximal inhibition (IC50) (in test [1]; on PDE4D; in test [2]; in test [3]) was under 10 µM each time.

`N#Cc1c(Nc2ccccc2F)sc(C(=O)c2ccc(-c3ccccn3)s2)c1N` [Compound 1-67, 4-Amino-2-(2-fluoro-phenylamino)-5-(5-pyridin-2-yl-thiophene-2-carbonyl)-thiophene-3-carbonitrile]: the half-maximal inhibitory concentration (IC50) (in test [1]; at PDE4D; in test [2]; in test [3]) was under 10 µM in each case.

For the molecule `COc1ccc(Nc2sc(C(=O)c3ccc(-c4ccccn4)s3)c(N)c2C#N)cc1` [Compound 1-68, 4-Amino-2-(4-methoxy-phenylamino)-5-(5-pyridin-2-yl-thiophene-2-carbonyl)-thiophene-3-carbonitrile], the half-inhibitory concentration (IC50) in test [1] was under 10 µM; on PDE4D, under 10 µM; in test [2] it was over 10 µM; in test [3] it was over 10 µM.

Regarding `N#Cc1cccc(Nc2sc(C(=O)c3ccc(-c4ccccn4)s3)c(N)c2C#N)c1` [Compound 1-69, 4-Amino-2-(3-cyano-phenylamino)-5-(5-pyridin-2-yl-thiophene-2-carbonyl)-thiophene-3-carbonitrile], the IC50 (in test [1]; on PDE4D; in test [2]; in test [3]) was under 10 µM in each case.

As to `N#Cc1c(Nc2ccc3c(c2)CCC3)sc(C(=O)c2ccc(-c3ccccn3)s2)c1N` [Compound 1-71, 4-Amino-2-(indan-5-ylamino)-5-(5-pyridin-2-yl-thiophene-2-carbonyl)-thiophene-3-carbonitrile], the concentration for half-maximal inhibition (IC50) is under 10 µM in test [1], under 10 µM on PDE4D, under 10 µM in test [2] and over 10 µM in test [3].

Turning to `COC(=O)C(CCSC)Nc1sc(C(=O)c2ccc(-c3ccccn3)s2)c(N)c1C#N` (stereo not drawn) [Compound 1-74, 2-[4-Amino-3-cyano-5-(5-pyridin-2-yl-thiophene-2-carbonyl)-thiophen-2-ylamino]-4-methylsulfanyl-butyric acid methyl ester], the half-maximal inhibitory concentration (IC50) (in test [1]; on PDE4D; in test [2]; in test [3]) was under 10 µM in each case.

On to `COc1ccc(CNc2sc(C(=O)c3ccc(-c4ccccn4)s3)c(N)c2C#N)cc1OC` [Compound 1-75, 4-Amino-2-(3,4-dimethoxy-benzylamino)-5-(5-pyridin-2-yl-thiophene-2-carbonyl)-thiophene-3-carbonitrile], for which the half-inhibitory concentration (IC50) (in test [1]; at PDE4D; in test [2]; in test [3]) was under 10 µM each time.

Take `N#Cc1c(Nc2ccc(C(=O)NC3CCOC3=O)cc2)sc(C(=O)c2ccc(-c3ccccn3)s2)c1N` (stereo not drawn) [Compound 1-77, 4-[4-Amino-3-cyano-5-(5-pyridin-2-yl-thiophene-2-carbonyl)-thiophen-2-ylamino]-N-(2-oxo-tetrahydro-furan-3-yl)-benzamide]: the 50% inhibitory concentration (IC50) (in test [1]; at PDE4D; in test [2]; in test [3]) was under 10 µM each time.

Regarding `N#Cc1c(NC2CCCC2)sc(C(=O)c2ccc(-c3ccccn3)s2)c1N` [Compound 1-78, 4-Amino-2-cyclopentylamino-5-(5-pyridin-2-yl-thiophene-2-carbonyl)-thiophene-3-carbonitrile], the concentration for half-maximal inhibition (IC50) (in test [1]; at PDE4D; in test [2]; in test [3]) was under 10 µM in each case.

As to `CCc1ccccc1Nc1sc(C(=O)c2ccc(-c3ccccn3)s2)c(N)c1C#N` [Compound 1-81, 4-Amino-2-(2-ethyl-phenylamino)-5-(5-pyridin-2-yl-thiophene-2-carbonyl)-thiophene-3-carbonitrile], the IC50 is under 10 µM in test [1], under 10 µM on PDE4D, over 10 µM in test [2] and over 10 µM in test [3].

As for `N#Cc1c(NCCN2CCCCC2)sc(C(=O)c2cc(-c3ccc(Cl)cc3Cl)no2)c1N` [Compound 1-82, 4-Amino-5-[3-(2,4-dichloro-phenyl)-isoxazole-5-carbonyl]-2-(2-piperidin-1-yl-ethylamino)-thiophene-3-carbonitrile], the half-maximal inhibitory concentration (IC50) (in test [1]; at PDE4D; in test [2]; in test [3]) was over 10 µM in each case.

As for `N#Cc1c(NCCN2CCCCC2)sc(C(=O)c2cc(-c3ccc(Cl)c(Cl)c3)no2)c1N` [Compound 1-83, 4-Amino-5-[3-(3,4-dichloro-phenyl)-isoxazole-5-carbonyl]-2-(2-piperidin-1-yl-ethylamino)-thiophene-3-carbonitrile], the IC50 (in test [1]; at PDE4D; in test [2]; in test [3]) was over 10 µM each time.

In the case of `COc1ccc(Nc2sc(C(=O)c3ccc(C)cc3C)c(N)c2C#N)cc1` [Compound 1-85], the IC50 (in test [1]; at PDE4D; in test [2]; in test [3]) was under 10 µM each time.

In general, IC50 refers to the concentration that gives 50% inhibition.
